For series [1] the following is noted: Crystal; DTA.
The nature of series [2]: Molar enthalpy of transition or fusion. Conditions: Crystal; DSC.

Molecules are shown by their SMILES. Numbers after ± are expanded uncertainties.

As to `On1nnc2ccccc21` [1-benzotriazolol], the Normal melting temperature in series [1] stood at 151.11 ± 1.1 °C. For the same compound, the “Molar enthalpy of transition or fusion” value in series [2] worked out at 4.79 ± 0.217 kcal/mol.

Source of the values: the NIST ThermoML archive (doi:10.1021/acs.jced.7b00316).
